Results reported in article PMC6983514 (British Journal of Clinical Pharmacology, 2020).
“And” between values parts separate entries of the source, which are not always exact repeats. Equal values may be shown once. Read-outs that look alike come from different tables or passages of the source.

Tests used:
[1] = Plasma concentrations of ATV and metabolites by HPLC-MS/MS in NSTE-ACS patients at V2 (1 month); format: in vivo, human; conditions: for concentration at […] / concentration at 1 month: human, plasma, oral; for concentration at […]: plasma at V2, median […] since last ATV (estimated), read-out: Conc (ng/mL), median (IQR); for concentration at 1 month: median ATV concentration, unadjusted
From the text: This investigation harnessed the Pharmacogenetics of Acute Coronary Syndrome (PhACS) study, described previously.13 Briefly, PhACS was a UK multicentre prospective observational study that recruited 1470 eligible patients hospitalised with an NSTE‐ACS between 2008–2012 and followed them up at 1 (V2) and 12 (V3) months. Demographic, comorbidity and prescription information was collected at baseline; drug use, drug adherence, and new clinical events were captured during follow up. PhACS participants were genotyped using the Illumina HumanOmniExpressExome‐8 v1.0 BeadChip at Edinburgh Genomics (Roslin Institute, Scotland).
Briefly, 50‐μL plasma samples were first mixed with 20 μL of a composite internal standard solution containing a deuterated internal standard for each analyte, and then diluted further by addition of 180 μL 100% acetonitrile containing 0.3% acetic acid. Following centrifugation, the supernatant was diluted 1:2 in water and a 5‐μL aliquot injected for analysis. Analytes were separated using a 2.7‐μm Halo C18 column (50 × 2.1 mm ID, 90 Å, Hichrom Limited, Reading, UK, part number: 92812–402) with gradient elution, housed within a Shimadzu Nexera X2 modular system (Kyoto, Japan). Analytes were detected in low mass positive ionisation mode using multiple reaction monitoring (Sciex triple quadrupole 6500 QTRAP mass spectrometer with a Turbo electrospray source, AB Sciex, Warrington, UK). […] Calibration and quality control (QC) samples were prepared in pooled healthy human volunteer K3 EDTA plasma (Sera Laboratories International, West Sussex, UK).

[2] = system: 3‐hydroxy‐3‐methyl‐glutaryl‐coenzyme A reductase (HMGCR); conditions: background statement in introduction; cited from earlier work
[3] = Genotype-stratified analysis: PPI association with endpoints by CYP2C19 predicted metaboliser status; format: in vivo, human; conditions: adjusted
Procedure: (§1) Exploratory genotype‐stratified analyses were carried out to further assess key identified drug–drug interactions. Specifically, the adjusted association of PPIs with endpoints was determined following cohort stratification by CYP2C19 predicted metaboliser status, because PPIs are metabolised by CYP2C19.22, 23 CYP2C19 was stratified by *2 (rs4244285; directly genotyped) and *17 (rs12248560; imputed) diplotypes into: extensive (EM, *1/*1), intermediate (IM, *1/*2 or *2/*17), poor (PM, *2/*2), rapid (RM, *1/*17) and ultra‐rapid metabolisers (UM, *17/*17). Due to the small number of PM (n = 10) and UM (n = 24) patients, PMs were combined with IMs, and UMs with RMs, for analysis. […] Secondly, the impact of https://www.guidetopharmacology.org/GRAC/ObjectDisplayForward?objectId=792 rs2231142 (Q141K; imputed) on the adjusted associations of loop diuretics with the endpoints was considered.
(§2) The sensitivity and genotype‐stratified analyses were only conducted on those endpoints where the perpetrator comedication of interest had been included in the endpoint's main analysis model, and P < .05 was taken to indicate significance. All statistical testing was carried out in the R computing environment,26 except for the secondary stepwise analysis that was undertaken in IBM SPSS version 22.0 (IBM Corp, Armonk, NY, USA); boxplots were produced in GraphPad Prism (version 5.00 for Windows: GraphPad Software Inc., San Diego, USA).

[4] = Genotype-stratified analysis: loop diuretic association with endpoints by ABCG2 rs2231142 (Q141K); format: in vivo, human; conditions: adjusted
Procedure: as §1, §2

[5] = Main analysis: all subsets multivariable linear regression with BIC model averaging of clinical factors/comedications on ATV analyte levels, ratios and sum total; format: in vivo, human; conditions: log10 transformed plasma concentration, model averaged coefficient
From the text: All variables were considered in model selection (see below) except hypertension, hyperlipidaemia, and prior CVD.
Prior to modelling, all endpoints were log10 transformed to normalise the distribution of (observed) residuals and optimise homoscedasticity.
Third, the derived models were ranked according to the Bayesian information criterion (BIC), which is more conservative than the corrected Akaike information criterion because BIC carries a larger penalty for increasing model complexity.19 Fourth, all models with a BIC within 2 of the model with the lowest BIC (BIC Δ < 2) underwent model averaging to produce model averaged (unstandardised) coefficients and standard errors for all the covariates included in this set of models, to enable multimodel inferences. The model selection constraint of Δ < 2 was chosen because the empirical evidence supporting each of these models is considered essentially equivalent.19 Conditional averaging was used, and so for a given covariate, its coefficient and standard error were averaged from only those models with BIC Δ < 2 that contained the covariate.20 This approach was taken because of the interest in assessing the relationship between individual covariates and the endpoints, with overall model predictive capability of secondary importance.21 The relative importance of each of the selected covariates to the endpoint was assessed by summing the BIC‐derived model weight for all models that underwent model averaging and contained the covariate. The P‐value for each covariate in the final model is provided for reference only. The utility of the final produced model for describing the observed variation in the endpoint was assessed using the unadjusted R^2 value. This process was undertaken for all endpoints. The above described covariate selection and model averaging was carried out using the R statistical package, MuMIn. 20

[6] = cited from earlier work
[7] = system: breast cancer resistance protein (BCRP, encoded by ABCG2); conditions: cited from earlier work
[8] = CYP2C19 EM (n = 233), on PPI n = 88
[9] = CYP2C19 PM/IM (n = 152), on PPI n = 58
[10] = CYP2C19 RM/UM (n = 186), on PPI n = 83
[11] = ABCG2 rs2231142 WT (n = 435), on LD n = 74
[12] = ABCG2 rs2231142 variant carrier (n = 136), on LD n = 22

Compound | concentration at […] ([1]; 40 mg daily, 40 mg ATV daily) | concentration at […] ([1]; 80 mg daily, 80 mg ATV daily) | activity against HMGCR [2] | B (SE), Proton pump inhibitor on analyte level [3, 8] | B (SE), Proton pump inhibitor on analyte level [3, 9] | B (SE), Proton pump inhibitor on analyte level [3, 10] | B (SE), Loop diuretic on analyte level [4, 11] | B (SE), Loop diuretic on analyte level [4, 12] | B (SE), ATV dose on analyte level [5] | B (SE), Age on analyte level [5] | B (SE), Body mass index on analyte level [5] | B (SE), Loop diuretic on analyte level [5] | B (SE), Proton pump inhibitor on analyte level [5] | B (SE), Sample storage duration on analyte level [5] | B (SE), Time since last ATV on analyte level [5] | other results
CC(C)c1c(C(=O)Nc2ccccc2O)c(-c2ccccc2)c(-c2ccc(F)cc2)n1CCC1CC(O)CC(=O)O1 (centres unmarked) [2‐OH ATV L] | 4.24 ng/mL | 7 ng/mL | inactive | 0.065 (0.039) | 0.018 (0.057) | 0.199 (0.042) | 0.102 (0.040) | 0.044 (0.075) | 0.215 (0.051) | 0.006 (0.001) | −0.006 (0.002) | 0.084 (0.035) | 0.106 (0.026) | 0.0001 (0.00003) | −0.0006 (0.0001) | B (SE), Hepatic disease on analyte level [5]: −0.289 (0.134)
CC(C)c1c(C(=O)Nc2ccccc2O)c(-c2ccccc2)c(-c2ccc(F)cc2)n1CC[C@@H](O)C[C@@H](O)CC(=O)O [2‐OH ATV] | 5.35 ng/mL | 6.93 ng/mL |  | 0.045 (0.038) | 0.032 (0.050) |  | 0.072 (0.039) | −0.051 (0.077) | 0.212 (0.048) | 0.007 (0.001) | −0.006 (0.002) | 0.074 (0.033) | 0.062 (0.024) | −0.0001 (0.00003) | −0.0007 (0.0001) | B (SE), Smoking on analyte level ([5]; current vs previous/never): −0.076 (0.028); B (SE), Chronic kidney disease on analyte level [5]: 0.111 (0.051); B (SE), Diabetes mellitus on analyte level [5]: 0.079 (0.031)
CC(C)c1c(C(=O)Nc2ccc(O)cc2)c(-c2ccccc2)c(-c2ccc(F)cc2)n1CCC1CC(O)CC(=O)O1 (centres unmarked) [4‐OH ATV L] |  |  | inactive |  |  |  |  |  |  |  |  |  |  |  |  | 
CC(C)c1c(C(=O)Nc2ccc(O)cc2)c(-c2ccccc2)c(-c2ccc(F)cc2)n1CC[C@@H](O)C[C@@H](O)CC(=O)O [4‐OH ATV] |  |  | inhibit |  |  |  |  |  |  |  |  |  |  |  |  | 
CC(C)c1c(C(=O)Nc2ccccc2)c(-c2ccccc2)c(-c2ccc(F)cc2)n1CCC1CC(O)CC(=O)O1 (centres unmarked) [ATV L] | 2.51 ng/mL | 3.97 ng/mL |  | 0.076 (0.050) | 0.084 (0.070) | 0.232 (0.053) | 0.149 (0.048) | 0.077 (0.089) | 0.222 (0.064) |  | −0.006 (0.003) | 0.121 (0.043) | 0.139 (0.033) | 0.0002 (0.00004) | −0.0007 (0.0001) | B (SE), Amiodarone on analyte level [5]: 0.320 (0.142); B (SE), Sex (F vs M) on analyte level [5]: −0.097 (0.038)
CC(C)c1c(C(=O)Nc2ccccc2)c(-c2ccccc2)c(-c2ccc(F)cc2)n1CC[C@@H](O)C[C@@H](O)CC(=O)O [ATV, atorvastatin, reference compound] | 3.96 ng/mL | 5.22 ng/mL | inhibit | 0.052 (0.045) | 0.046 (0.061) | 0.162 (0.050) | 0.121 (0.044) | 0.041 (0.086) | 0.153 (0.058) | 0.004 (0.001) |  | 0.099 (0.040) | 0.093 (0.030) |  | −0.001 (0.0001) | fraction of an ATV dose excreted through the kidneys [6]: < 2%; concentration at 1 month ([1]; patients not on a PPI): 4.9 ng/mL; concentration at 1 month ([1]; patients not on a loop diuretic): 4.9 ng/mL; concentration at 1 month ([1]; patients on a PPI): 5.6 ng/mL; concentration at 1 month ([1]; patients on a loop diuretic): 6.8 ng/mL; increase in median ATV concentration ([1]; with PPIs vs without): 14% and ~ 14%; increase in median ATV concentration ([1]; with loop diuretics vs without): 38% and ~ 38%; B (SE), Amiodarone on analyte level [5]: 0.282 (0.129)
CCCCNc1cc(C(=O)O)cc(S(N)(=O)=O)c1Oc1ccccc1 [bumetanide] |  |  |  |  |  |  |  |  |  |  |  |  |  |  |  | inhibition of BCRP in vitro [7]: inhibit
